The values that follow come from PubChem BioAssay (NCI).

Structures are written as SMILES.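 Five concentrations, 48 hours, 96-well plates. GI50 marks 50% less growth. TGI is the concentration that stops growth completely.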

Among the test systems are TK-10 renal; SNB-75 CNS; SK-OV-3 ovarian; CCRF-CEM leukemia; IGROV1 ovarian; SNB-19 CNS; KM12 colon; OVCAR-5 ovarian; LOX IMVI melanoma; COLO 205 colon.
What all share (test): NCI anticancer screen, dose series, 48 h

For the compound `Cc1ccc(/C=C2\N=C(N3CCCC(CO)C3)NC2=O)cc1` (configuration not stated), the TGI in the test with TK-10 renal, in the test with SNB-75 CNS, in the test with SK-OV-3 ovarian, with CCRF-CEM leukemia, in the test on IGROV1 ovarian and in the test on SNB-19 CNS was above 100 µM throughout. Moreover, the TGI in the test with KM12 colon, in the test with OVCAR-5 ovarian, in the test with LOX IMVI melanoma and in the test with COLO 205 colon was above 100 µM in each case.

Take `CCOc1cc2c(cc1O)C(N)C[C@@H]1[C@@H]2CC[C@]2(C)[C@@H](O)CC[C@@H]12` (some centres not stated): the TGI in the test with TK-10 renal is above 100 µM; in the test with SNB-75 CNS, 95.4 µM; in the test on CCRF-CEM leukemia, 71.6 µM; in the test with IGROV1 ovarian, above 100 µM; with SNB-19 CNS, above 100 µM; in the test on KM12 colon, above 100 µM. The TGI with OVCAR-5 ovarian, in the test with LOX IMVI melanoma and in the test with COLO 205 colon was above 100 µM in each case.

`Cc1ccc2c(c1C)C(=O)/C(=C/c1cccc(C)c1C(=O)O)C2`: the TGI in the test with TK-10 renal, in the test with SNB-75 CNS, in the test on SK-OV-3 ovarian, with CCRF-CEM leukemia, in the test on IGROV1 ovarian and with SNB-19 CNS was above 100 µM throughout. The TGI is above 100 µM in the test with KM12 colon, above 100 µM in the test with OVCAR-5 ovarian, above 90.7 µM in the test with LOX IMVI melanoma and above 100 µM in the test on COLO 205 colon.

In the case of `CSCCCNC(=O)[C@H](CSC)NC(=O)c1csc(CCNC(=O)[C@@H](NSc2ccccc2[N+](=O)[O-])C(C)O)n1` (some centres not stated), the TGI in the test with TK-10 renal, with SNB-75 CNS, in the test with SK-OV-3 ovarian, in the test with CCRF-CEM leukemia, in the test on IGROV1 ovarian and in the test with SNB-19 CNS was above 100 µM each time. For the same compound, the TGI with KM12 colon, in the test on OVCAR-5 ovarian, in the test with LOX IMVI melanoma and in the test with COLO 205 colon was above 100 µM throughout.

Turning to `CN1CCN([C@H]2C[C@H]3[C@@H]4CC=C5C[C@@H](O)CC[C@]5(C)[C@H]4CC[C@]3(C)[C@H]2O)CC1`, the TGI in the test on TK-10 renal is above 100 µM; in the test on SNB-75 CNS, 97.4 µM; in the test with SK-OV-3 ovarian, above 100 µM; in the test with CCRF-CEM leukemia it was 57.1 µM; in the test on IGROV1 ovarian, above 100 µM; with SNB-19 CNS, above 62 µM. Further, the TGI is above 86.3 µM in the test with KM12 colon, above 82.8 µM in the test with OVCAR-5 ovarian, above 57.3 µM with LOX IMVI melanoma and above 100 µM in the test on COLO 205 colon.

Regarding `COc1ccc(C2=NC(c3ccc(Cl)cc3)C(c3ccc(Cl)cc3)N2C(=O)N2CCNC(=O)C2)c(OC(C)C)c1` (configuration not stated), the GI50 in the test with TK-10 renal was 1.93 µM; in the test with SNB-75 CNS, 2.37 µM; with SK-OV-3 ovarian it was 2.27 µM; in the test with CCRF-CEM leukemia, 3.85 µM; in the test with IGROV1 ovarian, 1.76 µM; in the test with SNB-19 CNS, 2.08 µM. Also, the GI50 with KM12 colon was 1.84 µM; in the test on OVCAR-5 ovarian, 2.23 µM; in the test on LOX IMVI melanoma, 1.78 µM; in the test on COLO 205 colon, 3.31 µM. Moreover, the TGI in the test with TK-10 renal was 3.39 µM; in the test on SNB-75 CNS, 4.8 µM; with SK-OV-3 ovarian, 4.31 µM; in the test with CCRF-CEM leukemia it was above 10 µM; in the test on IGROV1 ovarian, 3.29 µM; with SNB-19 CNS, 4.91 µM. Also, the TGI is 3.69 µM with KM12 colon, 5.54 µM in the test on OVCAR-5 ovarian, 3.33 µM with LOX IMVI melanoma and above 10 µM with COLO 205 colon.

Take `CC/C(N)=N\NC(=O)OC(C)(C)C`: the TGI in the test on TK-10 renal, in the test with SNB-75 CNS, with SK-OV-3 ovarian, in the test with CCRF-CEM leukemia, in the test with IGROV1 ovarian and in the test with SNB-19 CNS was above 100 µM in each case. Besides, the TGI in the test with KM12 colon, in the test with OVCAR-5 ovarian, with LOX IMVI melanoma and in the test with COLO 205 colon was above 100 µM in each case.

Take `Cc1ccc(NC(=O)CC(=O)n2nc(C)c(N=Nc3cccc(C)c3)c2C)cc1`: the TGI in the test with TK-10 renal is above 100 µM; in the test on SNB-75 CNS, 62.3 µM; in the test on SK-OV-3 ovarian it was above 100 µM; in the test on CCRF-CEM leukemia it was above 100 µM; with IGROV1 ovarian it was above 100 µM; with SNB-19 CNS it was above 100 µM. In addition, the TGI in the test on KM12 colon, in the test on OVCAR-5 ovarian, in the test on LOX IMVI melanoma and with COLO 205 colon was above 100 µM in each case.

Turning to `COc1ccc(CNc2nc3ccccc3nc2C(=O)O)cc1`, the TGI in the test on TK-10 renal, in the test with SNB-75 CNS, with CCRF-CEM leukemia, with IGROV1 ovarian, in the test on SNB-19 CNS and in the test with KM12 colon was above 100 µM each time. For the same compound, the TGI with OVCAR-5 ovarian, in the test with LOX IMVI melanoma and in the test on COLO 205 colon was above 100 µM throughout.

As to `CCOC(=O)/C=C/[C@@H](CC)O[Si](C(C)C)(C(C)C)C(C)C`, the TGI with TK-10 renal, with SNB-75 CNS, in the test with SK-OV-3 ovarian, in the test on CCRF-CEM leukemia, with IGROV1 ovarian and with SNB-19 CNS was above 100 µM each time. Moreover, the TGI in the test on KM12 colon, with OVCAR-5 ovarian, in the test on LOX IMVI melanoma and with COLO 205 colon was above 100 µM in each case.

Consider `CCOC(=O)CCC(NC(=O)c1ccc(Nc2nc3ccccc3nc2C(=O)OCC)cc1)C(=O)OCC` (configuration not stated), for which the TGI is 6.43 µM in the test with TK-10 renal; 6.16 µM in the test with SNB-75 CNS; 8.01 µM in the test on SK-OV-3 ovarian; above 100 µM in the test with CCRF-CEM leukemia; 9.2 µM in the test with IGROV1 ovarian; 14 µM in the test on SNB-19 CNS. Besides, the TGI in the test on KM12 colon is above 100 µM; in the test on OVCAR-5 ovarian it was above 56.4 µM; in the test on LOX IMVI melanoma, above 41.5 µM; in the test on COLO 205 colon, above 100 µM.

As for `CCOC(=O)c1cc(Br)c(-c2cc(C)co2)[nH]1`, the TGI in the test with SNB-75 CNS, in the test on SK-OV-3 ovarian, in the test on CCRF-CEM leukemia, with IGROV1 ovarian, in the test on SNB-19 CNS and with KM12 colon was above 100 µM in each case. Further, the TGI in the test with OVCAR-5 ovarian, in the test with LOX IMVI melanoma and with COLO 205 colon was above 100 µM in each case.
